Assay [1] has as its system Mycobacterium tuberculosis (strain H37RV). The assay is described as follows: In-vitro method for testing compounds against M. tuberculosis. Type of assay: cell-based. The note with it: 90% inhibitory concentration for bacterial growth, 7 days, 37° C., Resazurin fluorescence; for IC90: Mycobacterium tuberculosis, H37RV, 168 h, read-out: IC90 MTB 1 H37RV. Background: The colour change of resazurin is a common sign of viable cells or microbes.

The subject of assay [2] is Streptococcus pneumoniae (ATCC6305). In words: Microtitre plate IC90 determination against non-mycobacterial strains: S. pneumoniae. The format is cell-based. The note with it: 90% inhibitory concentration for bacterial growth, 37° C., resazurin fluorescence; for IC90 SPN 1 6305: 24 hours. How it is done:
(§1) The bacteria used in this study were grown overnight in flasks containing 100 ml Mueller-Hinton Broth (Becton Dickinson-cat. no. 275730) in sterile de-ionized water, with shaking, at 37° C. Stocks (0.5 ml/tube) were stored at -70° C. until use. Bacteria titrations were performed in microtiter plates to detect the TCID50, in which the TCID50 represents the dilution that gives rise to bacterial growth in 50% of inoculated cultures. In general, an inoculum level of approximately 100 TCID50 was used for susceptibility testing. […] Therefore resazurin (0.6 mg/ml) was added in a volume of 20 μl to all wells 3 hours after inoculation, and the plates were re-incubated overnight. A change in colour from blue to pink indicated the growth of bacteria.

Another assay deals with M. smegmatis ATCC607. In words: In-vitro anti-bacterial activity against strain M. smegmatis ATCC607. The note with it: for IC90 MSM 1 ATCC607: 90% inhibitory concentration for bacterial growth, 48 hours, 37° C., Alamar Blue fluorescence.
For assay [3], the system named is Staphylococcus aureus (ATCC29213). The assay is described as follows: Microtitre plate IC90 determination against non-mycobacterial strains: S. aureus. The format is cell-based. The note with it: 90% inhibitory concentration for bacterial growth, 37° C., resazurin fluorescence; for IC90 STA 1 B29213: 24 hours. How it is done: as §1

Each structure is given as a SMILES string. Values after ≈ are worked out from the molar mass of the structure shown.

Description for M. smegmatis ATCC607: Flat-bottom, sterile 96-well plastic microtiter plates were filled with 180 μl of sterile deionized water, supplemented with 0.25% BSA. Subsequently, stock solutions (7.8× final test concentration) of compounds were added in 45 μl volumes to a series of duplicate wells in column 2 so as to allow evaluation of their effects on bacterial growth. Serial five-fold dilutions (45 μl in 180 μl) were made directly in the microtiter plates from column 2 to 11 using a customised robot system (Zymark Corp., Hopkinton, Mass.). Pipette tips were changed after every 3 dilutions to minimize pipetting errors with high hydrophobic compounds. Untreated control samples with (column 1) and without (column 12) inoculum were included in each microtiter plate. Approximately 250 CFU per well of bacteria inoculum, in a volume of 100 μl in 2.8× Mueller-Hinton broth medium, was added to the rows A to H, except column 12. The same volume of broth medium without inoculum was added to column 12 in row A to H. The cultures were incubated at 37° C. for 48 hours in a humidified 5% CO2 atmosphere (incubator with open air valve and continuous ventilation). At the end of incubation, two days after inoculation, the bacterial growth was quantitated fluorometrically. Therefore Alamar Blue (10×) was added to all wells in a volume of 20 μl and plates were incubated for another 2 hours at 50° C.
The fluorescence was read in a computer-controlled fluorometer (Cytofluor, Biosearch) at an excitation wavelength of 530 nm and an emission wavelength of 590 nm (gain 30). The percentage growth inhibition achieved by the compounds was calculated according to standard methods and expressed as IC90 (μg/ml) which defines the 90% inhibitory concentration for bacterial growth.

For `COc1nc2ccc(Br)cc2cc1C(c1ccccc1)C(O)(CCCCN(C)C(=N)N)c1ccccc1` (single isomer, unassigned) [Compound 1], the IC90 is 4 µg/mL (≈ 7.12 µM) in assay [1]; 2.2 µg/mL (≈ 3.92 µM) in assay [2] (Streptococcus pneumoniae, ATCC6305, 24 h, read-out: IC90 SPN 1 6305); 1.8 µg/mL (≈ 3.21 µM) in the assay with M. smegmatis ATCC607 (Mycolicibacterium smegmatis, ATCC607, 48 h, read-out: IC90 MSM 1 ATCC607, 90% inhibitory concentration for bacterial growth, 37° C., Alamar Blue fluorescence); 2 µg/mL (≈ 3.56 µM) in assay [3] (Staphylococcus aureus, ATCC29213, 24 h, read-out: IC90 STA 1 B29213).

On to `COc1nc2ccc(Br)cc2cc1C(c1ccccc1)C(O)(CCCCN(C)C(=N)N)c1ccccc1` (single isomer, unassigned) [Compound 2], for which, in assay [1], the “IC90 MTB 1 H37RV” value came out at 2.5 µg/mL (≈ 4.45 µM). Also, the “IC90 SPN 1 6305” value in assay [2] was determined as 2.2 µg/mL (≈ 3.92 µM). The “IC90 MSM 1 ATCC607” value with M. smegmatis ATCC607 is 1.8 µg/mL (≈ 3.21 µM). In addition, in assay [3], the “IC90 STA 1 B29213” value came to 1.8 µg/mL (≈ 3.21 µM).

For the molecule `COc1nc2ccc(Br)cc2cc1C(c1ccccc1)C(O)(CCCCN1CC2CC1CN2Cc1ccccc1)c1ccc2ccccc2c1` (stereo not drawn) [Compound 23], the IC90 in assay [1] turned out to be 57.7 µg/mL (≈ 79.4 µM). The “IC90 SPN 1 6305” value in assay [2] is 0.2 µg/mL (≈ 0.275 µM). Further, the “IC90 MSM 1 ATCC607” value in the assay on M. smegmatis ATCC607 is 0.5 µg/mL (≈ 0.688 µM). The “IC90 STA 1 B29213” value in assay [3] came to 2.3 µg/mL (≈ 3.16 µM).

Values taken from patent US20100063026A1, “ANTIBACTERIAL QUINOLINE DERIVATIVES” (priority 2007, published 2010).
